# Assay results: patent publication US12350266B2, “FGFR2 inhibitors for the treatment of cholangiocarcinoma” (Janssen Pharmaceutica NV, priority 2017, dated 2025)
# Tests used:
# [1] = test system: FGFR-aberrant cholangiocarcinoma
# Text: Sparse samples were collected in Parts 3 and 4.
# [2] = test system: advanced cholangiocarcinoma patients; test: LUC2001 (NCT02699606) phase 2a study: safety (adverse events)
# Protocol: (§1) LUC2001 is an open-label, multicenter, phase 2a study including advanced cholangiocarcinoma subjects with FGFR alterations, based on FoundationOne testing, who failed at least 1 prior systemic treatment. The primary endpoint is objective response rate (ORR; by Response Evaluation Criteria in Solid Tumors (RECIST) version 1.1). The secondary endpoints are disease control rate (DCR), safety and pharmacokinetics. Disease is evaluated every 8 weeks until disease progression (PD). […] The dose of the drug may be modified, delayed, or terminated based on guidelines in the protocol.
# [3] = compared with published Part 1 results (Tabernero 2015)
# [4] = test system: patients with FGFR-aberrant cholangiocarcinoma; test: Clinical trial NCT01703481: safety; type: in vivo, human; settings: compared with published Part 1 results (Tabernero 2015)
# Protocol: Eleven patients with FGFR-aberrant cholangiocarcinoma were treated at 9 mg QD (n=1, Part 3) or 10 mg intermittent (n=10, Part 4).
# [5] = test system: advanced cholangiocarcinoma with FGFR alterations; settings: 11 subjects dosed with 8 mg qd; snapshot 20 Mar. 2018
# Protocol: as §1
# [6] = 8 mg qd, most common AEs (>30%)
structure (smiles),measurement,setting,value
"COc1cc(OC)cc(N(CCNC(C)C)c2ccc3ncc(-c4cnn(C)c4)nc3c2)c1 [erdafitinib, N-(3,5-dimethoxy-phenyl)-N′-(1-methylethyl)-N-[3-(1-methyl-1H-pyrazol-4-yl)quinoxalin-6-yl]ethane-1,2-diamine]","partial responses, fusion FGFR2-BICC1",[1]; number of patients (n),1
same,"partial responses, fusion FGFR2-CCAR1",[1]; number of patients (n),1
same,"partial responses, patients with FGFR translocations",[1]; number of patients among the 3 partial responses,2
same,AE diarrhea (subjects/dosed),[2]; [6],4/11
same,AE dry mouth (subjects/dosed),[2]; [6],7/11
same,AE hyperphosphatemia (subjects/dosed),[2]; [6],8/11
same,AE nail disorder (subjects/dosed),[2]; [6],4/11
same,AE palmar-plantar erythrodysaesthesia syndrome (subjects/dosed),[2]; [6],4/11
same,AE stomatitis (subjects/dosed),[2]; [6],7/11
same,AE leading to treatment discontinuation or death,"[2]; 11 subjects, 8 mg qd",no AE led to treatment discontinuation or death
same,subjects who experienced AEs,"[2]; 11 subjects, 8 mg qd",All subjects experienced AEs
same,subjects with AEs leading to drug interruption,"[2]; 11 subjects, 8 mg qd",all had AEs leading to drug interruption
same,safety profile (conclusion),[2]; patients with FGFR-aberrant advanced cholangiocarcinoma,tolerable safety profile
same,PK data,[3],consistent with those from the previously published results from Part 1 of this study
same,Safety data,[4],consistent with those from the previously published results from Part 1 of this study
same,"PD (disease progression), number of subjects",[5],2
